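A five-concentration, 48-hour dose response in 96-well plates underlies each endpoint, interpolated linearly between surrounding concentrations. GI50 is the concentration that inhibits growth by half. At the TGI there is no net growth.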
Legend:
Test in all cases: inhibition of tumour cell growth, NCI panel, 48 h
786-0 renal = tested on: 786-0 renal
A498 renal = tested on: A498 renal
A549 NSCLC = tested on: A549 NSCLC
ACHN renal = tested on: ACHN renal
BT-549 breast = tested on: BT-549 breast
CAKI-1 renal = tested on: CAKI-1 renal
CCRF-CEM leukemia = tested on: CCRF-CEM leukemia
DU-145 prostate = tested on: DU-145 prostate
EKVX NSCLC = tested on: EKVX NSCLC
HCC-2998 colon = tested on: HCC-2998 colon
HCT-15 colon = tested on: HCT-15 colon
HL-60(TB) leukemia = tested on: HL-60(TB) leukemia
HOP-92 NSCLC = tested on: HOP-92 NSCLC
HS 578T breast = tested on: HS 578T breast
HT29 colon = tested on: HT29 colon
IGROV1 ovarian = tested on: IGROV1 ovarian
K-562 leukemia = tested on: K-562 leukemia
KM12 colon = tested on: KM12 colon
M14 melanoma = tested on: M14 melanoma
MALME-3M melanoma = tested on: MALME-3M melanoma
MCF7 breast = tested on: MCF7 breast
MDA-MB-231 breast = tested on: MDA-MB-231 breast
MOLT-4 leukemia = tested on: MOLT-4 leukemia
NCI-H226 lung = tested on: NCI-H226 lung
NCI-H23 lung = tested on: NCI-H23 lung
NCI-H460 lung = tested on: NCI-H460 lung
NCI-H522 lung = tested on: NCI-H522 lung
NCI/ADR-RES ovarian = tested on: NCI/ADR-RES ovarian
OVCAR-3 ovarian = tested on: OVCAR-3 ovarian
OVCAR-4 ovarian = tested on: OVCAR-4 ovarian
OVCAR-5 ovarian = tested on: OVCAR-5 ovarian
PC-3 prostate = tested on: PC-3 prostate
RPMI-8226 leukemia = tested on: RPMI-8226 leukemia
RXF 393 renal = tested on: RXF 393 renal
SF-295 CNS = tested on: SF-295 CNS
SF-539 CNS = tested on: SF-539 CNS
SK-MEL-2 melanoma = tested on: SK-MEL-2 melanoma
SK-MEL-28 melanoma = tested on: SK-MEL-28 melanoma
SK-MEL-5 melanoma = tested on: SK-MEL-5 melanoma
SN12C renal = tested on: SN12C renal
SNB-19 CNS = tested on: SNB-19 CNS
SNB-75 CNS = tested on: SNB-75 CNS
SR leukemia = tested on: SR leukemia
SW-620 colon = tested on: SW-620 colon
TK-10 renal = tested on: TK-10 renal
UACC-257 melanoma = tested on: UACC-257 melanoma
UACC-62 melanoma = tested on: UACC-62 melanoma
UO-31 renal = tested on: UO-31 renal

COc1ccc(/C(C)=N/NC(=O)CSc2nc3ccccc3c(=O)n2CCc2ccc(S(N)(=O)=O)cc2)cc1
GI50 (786-0 renal): 1.79 µM
TGI (786-0 renal): 3.44 µM
GI50 (A498 renal): 2.1 µM
TGI (A498 renal): 4.12 µM
GI50 (A549 NSCLC): 2.1 µM
TGI (A549 NSCLC): 4 µM
GI50 (ACHN renal): 1.73 µM
TGI (ACHN renal): 3.27 µM
GI50 (BT-549 breast): 1.66 µM
TGI (BT-549 breast): 3.74 µM
GI50 (CAKI-1 renal): 2.07 µM
TGI (CAKI-1 renal): 4.53 µM
GI50 (CCRF-CEM leukemia): 4.44 µM
TGI (CCRF-CEM leukemia): > 100 µM
GI50 (DU-145 prostate): 1.77 µM
TGI (DU-145 prostate): 3.55 µM
GI50 (EKVX NSCLC): 2.85 µM
TGI (EKVX NSCLC): 12.8 µM
GI50 (HCC-2998 colon): 9.26 µM
TGI (HCC-2998 colon): 28.6 µM
GI50 (HCT-15 colon): 4.7 µM
TGI (HCT-15 colon): 63.7 µM
GI50 (HL-60(TB) leukemia): 16.6 µM
TGI (HL-60(TB) leukemia): > 100 µM
GI50 (HOP-92 NSCLC): 1.89 µM
TGI (HOP-92 NSCLC): 4 µM
GI50 (HS 578T breast): 2.24 µM
TGI (HS 578T breast): 6.2 µM
GI50 (HT29 colon): 1.95 µM
TGI (HT29 colon): 3.7 µM
GI50 (IGROV1 ovarian): 1.97 µM
TGI (IGROV1 ovarian): 3.98 µM
GI50 (K-562 leukemia): 2.87 µM
TGI (K-562 leukemia): > 100 µM
GI50 (KM12 colon): 2.06 µM
TGI (KM12 colon): 3.96 µM
GI50 (M14 melanoma): 1.91 µM
TGI (M14 melanoma): 3.75 µM
GI50 (MALME-3M melanoma): 1.72 µM
TGI (MALME-3M melanoma): 3.44 µM
GI50 (MCF7 breast): 2.95 µM
TGI (MCF7 breast): 11.2 µM
GI50 (MDA-MB-231 breast): 1.87 µM
TGI (MDA-MB-231 breast): 3.88 µM
GI50 (MOLT-4 leukemia): 4.2 µM
TGI (MOLT-4 leukemia): 84.2 µM
GI50 (NCI-H226 lung): 1.95 µM
TGI (NCI-H226 lung): 4.18 µM
GI50 (NCI-H23 lung): 2.3 µM
TGI (NCI-H23 lung): 5.81 µM
GI50 (NCI-H460 lung): 2.03 µM
TGI (NCI-H460 lung): 3.81 µM
GI50 (NCI-H522 lung): 2.26 µM
TGI (NCI-H522 lung): 6.75 µM
GI50 (NCI/ADR-RES ovarian): 11.7 µM
TGI (NCI/ADR-RES ovarian): > 100 µM
GI50 (OVCAR-3 ovarian): 1.99 µM
TGI (OVCAR-3 ovarian): 3.85 µM
GI50 (OVCAR-4 ovarian): 1.77 µM
TGI (OVCAR-4 ovarian): 3.52 µM
GI50 (OVCAR-5 ovarian): 1.61 µM
TGI (OVCAR-5 ovarian): 3.23 µM
GI50 (PC-3 prostate): 1.98 µM
TGI (PC-3 prostate): 4.15 µM
GI50 (RPMI-8226 leukemia): 2.02 µM
TGI (RPMI-8226 leukemia): 10.6 µM
GI50 (RXF 393 renal): 1.72 µM
TGI (RXF 393 renal): 3.29 µM
GI50 (SF-295 CNS): 1.8 µM
TGI (SF-295 CNS): 3.86 µM
GI50 (SF-539 CNS): 1.69 µM
TGI (SF-539 CNS): 3.16 µM
GI50 (SK-MEL-2 melanoma): 2.58 µM
TGI (SK-MEL-2 melanoma): 6.68 µM
GI50 (SK-MEL-28 melanoma): 1.75 µM
TGI (SK-MEL-28 melanoma): 3.3 µM
GI50 (SK-MEL-5 melanoma): 1.64 µM
TGI (SK-MEL-5 melanoma): 3.06 µM
GI50 (SN12C renal): 1.89 µM
TGI (SN12C renal): 3.75 µM
GI50 (SNB-19 CNS): 2.27 µM
TGI (SNB-19 CNS): 4.78 µM
GI50 (SNB-75 CNS): 1.81 µM
TGI (SNB-75 CNS): 4.26 µM
GI50 (SR leukemia): 2.52 µM
TGI (SR leukemia): > 100 µM
GI50 (SW-620 colon): 2.28 µM
TGI (SW-620 colon): 5.01 µM
GI50 (TK-10 renal): 1.95 µM
TGI (TK-10 renal): 3.98 µM
GI50 (UACC-257 melanoma): 2.39 µM
TGI (UACC-257 melanoma): 5.57 µM
GI50 (UACC-62 melanoma): 2.2 µM
TGI (UACC-62 melanoma): 4.93 µM
GI50 (UO-31 renal): 1.56 µM
TGI (UO-31 renal): 3.28 µM

Source: PubChem BioAssay (NCI)
